Consider 11 compounds from patent US20260209223A1, “FGFR3 INHIBITOR COMPOUNDS” (TYRA BIOSCIENCES, INC., priority 2022, published 2026).

For orientation: Kd means a measure of binding affinity in units of concentration.

The target in assay [1] is T1, Ba/F3 FGFR3-BAIAP2L1 (Homo sapiens, UniProt P22607).
T1 construct: BAIAP2L1 (fusion partner, Q9UHR4 if human); host or cells: Ba/F3; the other entry of the earlier key: BAIAP2L1 (Q9UHR4, BAR/IMD domain-containing adapter protein 2-like 1)
Put plainly: Ba/F3 cell viability assay (CellTiter-Glo 2.0). As to conditions: Ba/F3 cell data, FGFR3-BAIAP2L1 fusion, 48 hours. It counts as cell-based. Background: ATP-based viability assays read luminescence as a measure of living cells.

Assay [2] concerns the target T2, Ba/F3 BCR-FGFR1 (Homo sapiens, UniProt P11362).
T2 construct: BCR (fusion partner); host or cells: Ba/F3; the other entry of the earlier key: BCR (P11274, Breakpoint cluster region protein)
Kind of assay: Ba/F3 cell viability assay (CellTiter-Glo 2.0). It counts as cell-based. As to conditions: Ba/F3 cell data, BCR-FGFR1 fusion, 48 hours.

The target in assay [3] is T3, Ba/F3 BCR-FGFR2 (Homo sapiens, UniProt P21802).
T3 construct: BCR (fusion partner); host or cells: Ba/F3; the other entry of the earlier key: BCR (P11274, Breakpoint cluster region protein)
Put plainly: Ba/F3 cell viability assay (CellTiter-Glo 2.0). As to conditions: Ba/F3 cell data, BCR-FGFR2 fusion, 48 hours. The class given is cell-based.

Assay [4] has as its target T4, Ba/F3 ETV5-FGFR4 (Homo sapiens, UniProt P22455).
T4 construct: host or cells: Ba/F3; the other entry of the earlier key: ETV5 (P41161, ETS translocation variant 5)
Kind of assay: Ba/F3 cell viability assay (CellTiter-Glo 2.0). Particulars: Ba/F3 cell data, ETV5-FGFR4 fusion, 48 hours. It counts as cell-based. The source says: Experimental Purpose: Recombinant kinase fusions are transduced into parental Ba/F3, which becomes dependent upon this constitutive kinase activity for IL3-independent survival. Inhibition of kinase activity leads to cell death, which is monitored using CellTiter-Glo® 2.0 (Promega) which measures intracellular ATP concentration that in turn serves as a marker for viability. BCR-FGFR1 Ba/F3, BCR-FGFR2 and FGFR3-BAIAP2L1 Ba/F3 were obtained from Advanced Cellular Dynamics (Seattle, WA). ETV6-FGFR4 was obtained from Kyinno (Waltham, MA).
Cell Viability Assay Procedure: Cell Titer-Glo® 2.0 Luminescent cell viability assay reagent was purchased from Promega (Madison, WI). Ba/F3 cell lines were cultured in RPMI1640 media supplemented with 10% fetal bovine serum. Cultures were maintained at 37° C. in a humidified atmosphere of 5% CO2 and 95% air.
Cells were plated in 96-well clear bottom/white plates (Corning #3903) at 10,000 cells/well in 100 μl of media, incubated overnight. The next day, test compound DMSO stock solutions were made at 10 mM and 2 μM final concentration. Compounds were then added to cells in a 9-dose, 10-fold dilution series starting at 30 μM with an HP 300e Digital Dispenser (each dose was applied in triplicate). DMSO was backfilled to each well up to 301 nL total volume of test compound+DMSO, and a total of 301 nL DMSO was added to a control/no test compound well in triplicate. The cells in cell culture plates were incubated with the compounds at 37° C. and 5% CO2 for 48 hours. Then 50 μl of Cell Titer Glo 2.0 reagent was added to each well of the cell culture plates. The contents were covered from light and mixed on an orbital shaker at room temperature for 10 min. Luminescence was recorded by a Synergy H1 Microplate Reader (Biotek, Winooski, VT). Cells were assessed as a percentage of DMSO only treated control cells. Curves were plotted and IC50 values were calculated using the GraphPad Prism 8 program based on a sigmoidal dose-response equation (4 parameter).

For assay [5], the target named is T5, FGFR1 (Homo sapiens, UniProt P11362).
T5 construct: made in house; host or cells: E. coli (BL21-derived) infected with T7 phage
Kind of assay: Kinase binding assay (Kd), kinase-tagged T7 phage, affinity beads, qPCR. Particulars: in vitro binding assay, 11-point 3-fold dilution series. As for the experimental part:
(§1) Kinase-tagged T7 phage strains were prepared in an E. coli host derived from the BL21 strain. E. coli were grown to log-phase and infected with T7 phage and incubated with shaking at 32° C. until lysis. The lysates were centrifuged and filtered to remove cell debris. Streptavidin-coated magnetic beads were treated with biotinylated small molecule ligands for 30 minutes at room temperature to generate affinity resins for kinase assays. The liganded beads were blocked with excess biotin and washed with blocking buffer SeaBlock (Pierce), 1% BSA, 0.05% Tween 20, 1 mM DTT to remove unbound ligand and to reduce non-specific binding. Binding reactions were assembled by combining kinases, liganded affinity beads, and test compounds in 1× binding buffer (20% SeaBlock, 0.17×PBS, 0.05% Tween 20, 6 mM DTT).
(§2) Test compounds were prepared as 111× stocks in 100% DMSO. Kds were determined using an 11-point 3-fold compound dilution series with three DMSO control points. All compounds for Kd measurements are distributed by acoustic transfer (non-contact dispensing) in 100% DMSO. The compounds were then diluted directly into the assays such that the final concentration of DMSO was 0.9%. All reactions performed in polypropylene 384-well plate. Each was a final volume of 0.02 ml. The assay plates were incubated at room temperature with shaking for 1 hour and the affinity beads were washed with wash buffer (1×PBS, 0.05% Tween 20). The beads were then re-suspended in elution buffer (1×PBS, 0.05% Tween 20, 0.5 μM non-biotinylated affinity ligand) and incubated at room temperature with shaking for 30 minutes. The kinase concentration in the eluates was measured by qPCR.
(§3) Binding constants were calculated with a standard dose-response curve using the Hill equation: […]
(§4) The Hill Slope was set to −1. Curves were fitted using a non-linear least square fit with the Levenberg-Marquardt algorithm.

The target of assay [6] is T6, FGFR3 (Homo sapiens, UniProt P22607).
T6 construct: made in house; host or cells: E. coli (BL21-derived) infected with T7 phage
The assay is described as above. Particulars: in vitro binding assay, 11-point 3-fold dilution series. As for the experimental part:
as §1, §2, §3, §4

The target of assay [7] is T7, FGFR3 (V555M) (Homo sapiens, UniProt P22607, V555M).
T7 construct: made in house; host or cells: E. coli (BL21-derived) infected with T7 phage
The description is as above. Particulars: in vitro binding assay, 11-point 3-fold dilution series. The procedure: as §1, §2, §3, §4

Assay [8] addresses T8, FGFR2 (Homo sapiens, UniProt P21802).
T8 construct: made in house; host or cells: E. coli (BL21-derived) infected with T7 phage
Described as above. As to conditions: in vitro binding assay, 11-point 3-fold dilution series. As for the experimental part:
as §1, §2, §3, §4

The target of assay [9] is T9, FGFR4 (Homo sapiens, UniProt P22455).
T9 construct: made in house; host or cells: E. coli (BL21-derived) infected with T7 phage
The description is as above. As to conditions: in vitro binding assay, 11-point 3-fold dilution series. As for the experimental part: as §1, §2, §3, §4

Molecules are shown by their SMILES.

T7 sequence (P22607 23-806 V555M): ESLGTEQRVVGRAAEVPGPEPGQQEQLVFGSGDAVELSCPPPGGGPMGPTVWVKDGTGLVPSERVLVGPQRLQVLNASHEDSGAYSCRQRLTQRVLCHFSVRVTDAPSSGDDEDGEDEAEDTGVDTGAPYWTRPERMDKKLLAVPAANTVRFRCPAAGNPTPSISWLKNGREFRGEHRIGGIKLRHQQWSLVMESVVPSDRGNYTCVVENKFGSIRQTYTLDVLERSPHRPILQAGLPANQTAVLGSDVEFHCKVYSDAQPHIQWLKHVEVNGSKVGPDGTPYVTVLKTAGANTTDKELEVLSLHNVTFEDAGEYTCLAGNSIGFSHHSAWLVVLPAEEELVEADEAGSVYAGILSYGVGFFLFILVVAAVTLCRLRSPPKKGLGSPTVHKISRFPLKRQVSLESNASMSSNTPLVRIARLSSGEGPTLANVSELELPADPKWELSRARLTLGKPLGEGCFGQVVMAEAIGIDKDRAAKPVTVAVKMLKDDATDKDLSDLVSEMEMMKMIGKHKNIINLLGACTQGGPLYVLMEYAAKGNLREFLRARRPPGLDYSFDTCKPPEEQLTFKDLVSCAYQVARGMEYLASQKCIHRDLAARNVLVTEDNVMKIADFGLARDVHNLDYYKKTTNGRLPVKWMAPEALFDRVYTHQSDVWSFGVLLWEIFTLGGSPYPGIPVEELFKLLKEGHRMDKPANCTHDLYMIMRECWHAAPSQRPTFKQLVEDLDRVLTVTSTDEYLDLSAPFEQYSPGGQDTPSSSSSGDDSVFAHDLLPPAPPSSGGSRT
T1 sequence (P22607 397-758 limits assumed): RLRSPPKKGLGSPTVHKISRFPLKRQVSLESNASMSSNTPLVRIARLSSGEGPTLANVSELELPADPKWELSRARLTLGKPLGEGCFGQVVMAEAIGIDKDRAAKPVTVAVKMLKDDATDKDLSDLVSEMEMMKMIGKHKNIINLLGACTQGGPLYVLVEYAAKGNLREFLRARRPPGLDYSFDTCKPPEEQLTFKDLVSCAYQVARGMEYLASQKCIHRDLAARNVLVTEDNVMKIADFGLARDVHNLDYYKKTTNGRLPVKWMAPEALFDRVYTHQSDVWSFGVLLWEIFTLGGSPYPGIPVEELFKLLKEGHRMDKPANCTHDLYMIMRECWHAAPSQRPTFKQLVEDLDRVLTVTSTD
T6 sequence (P22607 23-806): as the sequence (P22607 23-806 V555M) above, with M533V counted along it
T3 sequence (P21802 481-770 limits assumed): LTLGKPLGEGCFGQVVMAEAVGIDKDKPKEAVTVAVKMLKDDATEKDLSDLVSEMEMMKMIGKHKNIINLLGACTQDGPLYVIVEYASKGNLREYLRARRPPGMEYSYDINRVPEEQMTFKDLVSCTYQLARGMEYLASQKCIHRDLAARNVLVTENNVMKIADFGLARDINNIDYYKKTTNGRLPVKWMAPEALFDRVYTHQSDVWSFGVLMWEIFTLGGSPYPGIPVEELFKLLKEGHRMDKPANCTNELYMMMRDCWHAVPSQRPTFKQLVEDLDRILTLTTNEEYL
T4 sequence (P22455 467-755 limits assumed): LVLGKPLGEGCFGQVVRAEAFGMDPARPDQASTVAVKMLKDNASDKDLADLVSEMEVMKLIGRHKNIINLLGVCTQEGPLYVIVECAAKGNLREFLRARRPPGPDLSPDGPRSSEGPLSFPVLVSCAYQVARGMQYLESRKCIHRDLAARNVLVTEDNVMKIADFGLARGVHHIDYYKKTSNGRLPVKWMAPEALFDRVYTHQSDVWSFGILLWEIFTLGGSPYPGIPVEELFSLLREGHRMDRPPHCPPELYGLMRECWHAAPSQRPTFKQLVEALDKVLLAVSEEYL
T2 sequence (P11362 478-767 limits assumed): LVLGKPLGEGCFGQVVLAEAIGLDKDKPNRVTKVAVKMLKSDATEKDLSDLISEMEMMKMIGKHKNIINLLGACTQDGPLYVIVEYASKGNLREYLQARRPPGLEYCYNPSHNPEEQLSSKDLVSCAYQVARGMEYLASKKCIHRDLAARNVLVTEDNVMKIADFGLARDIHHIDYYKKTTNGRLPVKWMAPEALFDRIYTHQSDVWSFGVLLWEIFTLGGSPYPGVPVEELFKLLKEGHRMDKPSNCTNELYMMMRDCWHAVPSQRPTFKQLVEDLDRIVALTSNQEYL
T5 sequence (P11362 22-822): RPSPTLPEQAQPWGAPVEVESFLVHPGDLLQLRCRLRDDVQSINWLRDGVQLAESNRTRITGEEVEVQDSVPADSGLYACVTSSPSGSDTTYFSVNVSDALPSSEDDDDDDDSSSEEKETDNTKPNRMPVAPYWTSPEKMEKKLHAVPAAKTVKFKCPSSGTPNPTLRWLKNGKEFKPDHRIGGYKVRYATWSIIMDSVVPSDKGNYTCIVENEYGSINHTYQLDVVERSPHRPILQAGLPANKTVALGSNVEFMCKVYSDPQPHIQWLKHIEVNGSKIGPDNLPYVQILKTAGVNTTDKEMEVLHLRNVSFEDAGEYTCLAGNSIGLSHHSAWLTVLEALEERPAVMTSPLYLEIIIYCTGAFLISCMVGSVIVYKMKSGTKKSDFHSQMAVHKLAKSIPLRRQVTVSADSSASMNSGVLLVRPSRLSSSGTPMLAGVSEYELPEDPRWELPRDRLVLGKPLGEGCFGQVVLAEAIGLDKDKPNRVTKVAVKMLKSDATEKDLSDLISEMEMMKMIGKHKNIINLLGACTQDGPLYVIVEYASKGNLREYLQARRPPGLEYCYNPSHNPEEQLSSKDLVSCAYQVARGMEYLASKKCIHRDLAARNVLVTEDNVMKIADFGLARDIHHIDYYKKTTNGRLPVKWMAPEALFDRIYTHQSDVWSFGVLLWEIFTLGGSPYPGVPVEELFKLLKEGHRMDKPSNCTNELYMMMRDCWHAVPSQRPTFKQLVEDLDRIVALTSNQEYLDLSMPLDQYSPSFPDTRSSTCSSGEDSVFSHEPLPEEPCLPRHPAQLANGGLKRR
T8 sequence (P21802 22-821): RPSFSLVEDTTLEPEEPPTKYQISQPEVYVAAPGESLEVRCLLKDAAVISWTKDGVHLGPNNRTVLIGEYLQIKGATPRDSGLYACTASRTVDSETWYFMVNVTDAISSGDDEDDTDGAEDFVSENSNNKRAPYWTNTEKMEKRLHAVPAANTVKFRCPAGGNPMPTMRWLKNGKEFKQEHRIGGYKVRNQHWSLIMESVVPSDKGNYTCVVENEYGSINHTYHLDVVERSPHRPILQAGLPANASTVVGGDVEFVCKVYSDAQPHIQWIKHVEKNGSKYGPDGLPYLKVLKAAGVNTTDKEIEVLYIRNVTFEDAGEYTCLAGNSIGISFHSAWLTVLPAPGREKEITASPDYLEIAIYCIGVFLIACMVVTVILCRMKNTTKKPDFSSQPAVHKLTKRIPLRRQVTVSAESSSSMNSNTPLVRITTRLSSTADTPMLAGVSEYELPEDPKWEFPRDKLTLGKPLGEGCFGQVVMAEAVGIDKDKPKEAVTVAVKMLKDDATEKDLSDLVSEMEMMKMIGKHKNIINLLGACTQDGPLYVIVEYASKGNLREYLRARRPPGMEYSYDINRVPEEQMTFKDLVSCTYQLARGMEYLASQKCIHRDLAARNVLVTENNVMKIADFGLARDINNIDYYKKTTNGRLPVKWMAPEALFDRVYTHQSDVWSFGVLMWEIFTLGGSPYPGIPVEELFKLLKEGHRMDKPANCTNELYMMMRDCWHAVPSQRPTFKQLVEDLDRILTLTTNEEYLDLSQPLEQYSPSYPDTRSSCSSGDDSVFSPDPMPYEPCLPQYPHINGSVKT
T9 sequence (P22455 22-802): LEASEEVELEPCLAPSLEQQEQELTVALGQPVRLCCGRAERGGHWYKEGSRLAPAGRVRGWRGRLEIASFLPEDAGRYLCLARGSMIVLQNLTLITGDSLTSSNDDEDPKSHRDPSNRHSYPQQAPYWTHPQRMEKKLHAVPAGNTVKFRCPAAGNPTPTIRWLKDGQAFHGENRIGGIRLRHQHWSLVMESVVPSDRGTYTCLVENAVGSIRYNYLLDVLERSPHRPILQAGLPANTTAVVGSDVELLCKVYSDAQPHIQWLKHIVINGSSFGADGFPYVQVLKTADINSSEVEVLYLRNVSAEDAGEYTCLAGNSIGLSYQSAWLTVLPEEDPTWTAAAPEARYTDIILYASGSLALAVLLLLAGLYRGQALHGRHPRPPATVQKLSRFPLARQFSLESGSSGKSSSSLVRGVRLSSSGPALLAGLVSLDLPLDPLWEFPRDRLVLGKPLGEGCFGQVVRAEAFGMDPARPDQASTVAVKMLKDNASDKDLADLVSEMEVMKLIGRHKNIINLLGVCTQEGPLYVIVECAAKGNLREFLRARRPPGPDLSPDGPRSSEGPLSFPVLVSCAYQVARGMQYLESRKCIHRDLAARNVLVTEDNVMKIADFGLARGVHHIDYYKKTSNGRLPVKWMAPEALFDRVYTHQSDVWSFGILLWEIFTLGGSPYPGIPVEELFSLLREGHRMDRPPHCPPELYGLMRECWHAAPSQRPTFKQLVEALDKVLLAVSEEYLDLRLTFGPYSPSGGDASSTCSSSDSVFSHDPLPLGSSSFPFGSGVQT

Consider `C=CC(=O)N1CCC2(CC1)CC(n1ncc(-c3cc(OC(CO)c4ccccn4)c4c(Cl)cnn4c3)c1C)C2` (single isomer, unassigned) [Example 6], for which the dissociation constant (Kd) in assay [1] is 0.1 to 100 nM; in [2], 250 to 1000 nM; in assay [3], 250 to 1000 nM; in assay [4] it was 250 to 1000 nM; in [5] it was 100 to 250 nM; in assay [6], 0.1 to 100 nM.
With `C=CC(=O)N1CC(F)(C(=O)N2CCC(n3nnc(-c4cc(O[C@@H](CO)c5ccccn5)c5c(C#N)cnn5c4)c3C)CC2)C1` (single isomer, unassigned) [Example 19], the Kd in assay [5] is at least 1000 nM; in [7] it was 250 to 1000 nM; in [8], 250 to 1000 nM; in assay [9] it was at least 1000 nM; in [6], 100 to 250 nM.
Turning to `C=CC(=O)N1CCC2(CC1)CC(n1nnc(-c3cc(O[C@H](C)c4ccccn4)c4c(Cl)cnn4c3)c1C)C2` [Example 4, (R)-1-(2-(4-(3-chloro-4-(1-(pyridin-2-yl)ethoxy)-pyrazolo[1,5-a]pyridin-6-yl)-5-methyl-1H-1,2,3-triazol-1-yl)-7-azaspiro[3.5]nonan-7-yl)prop-2-en-1-one], the dissociation constant (Kd) in [1] fell in the range of 0.1 to 100 nM; in assay [2], 100 to 250 nM; in assay [3], 100 to 250 nM; in assay [4], 250 to 1000 nM; in assay [5] it was 0.1 to 100 nM; in assay [6], 0.1 to 100 nM.
Turning to `C=CC(=O)N1CCC2(CC1)CC(n1ncc(-c3cc(O[C@@H](CO)c4ccccn4)c4c(Cl)cnn4c3)c1C)C2` [Example 5, (R)-1-(2-(4-(3-chloro-4-(2-hydroxy-1-(pyridin-2-yl)ethoxy)pyrazolo[1,5-a]pyridin-6-yl)-5-methyl-1H-pyrazol-1-yl)-7-azaspiro[3.5]nonan-7-yl)prop-2-en-1-one], the Kd in assay [1] is 250 to 1000 nM; in assay [2], at least 1000 nM; in [3], at least 1000 nM; in assay [4], at least 1000 nM; in assay [5] it was at least 1000 nM; in assay [6], 250 to 1000 nM.
In the case of `C=CC(=O)N1CCC2(CC1)CC(n1ncc(-c3cc(O[C@@H](CO)c4ccccn4)c4c(C#N)cnn4c3)c1C)C2` [Example 7, (R)-6-(1-(7-acryloyl-7-azaspiro[3.5]nonan-2-yl)-5-methyl-1H-pyrazol-4-yl)-4-(2-hydroxy-1-(pyridin-2-yl)ethoxy)pyrazolo[1,5-a]pyridine-3-carbonitrile], the Kd was 100 to 250 nM in assay [1]; at least 1000 nM in assay [2]; 250 to 1000 nM in assay [3]; 250 to 1000 nM in [4]; 250 to 1000 nM in [5]; 250 to 1000 nM in assay [7]. The dissociation constant Kd was 100 to 250 nM in assay [8], 250 to 1000 nM in [9] and 100 to 250 nM in assay [6].
As for `C=CC(=O)N1CCC2(CC1)CC(n1ncc(-c3cc(O[C@@H](CO)c4ccc(F)cn4)c4c(C#N)cnn4c3)c1C)C2` [Example 10, (R)-6-(1-(7-acryloyl-7-azaspiro[3.5]nonan-2-yl)-5-methyl-1H-pyrazol-4-yl)-4-(1-(5-fluoropyridin-2-yl)-2-hydroxyethoxy)pyrazolo[1,5-a]pyridine-3-carbonitrile], the Kd in assay [1] was 250 to 1000 nM; in [2], at least 1000 nM; in assay [3], at least 1000 nM; in assay [4], at least 1000 nM; in assay [5] it was 250 to 1000 nM; in assay [7], 250 to 1000 nM. In addition, the Kd in assay [8] and in assay [6] was 250 to 1000 nM in each case.
In the case of `CCC(=O)N1CC(C(=O)N2CCC(n3nnc(-c4cc(OC(CO)c5ccccn5)c5c(C#N)cnn5c4)c3C)CC2)C1` (centres unmarked) [Example 16, 4-(2-hydroxy-1-(pyridin-2-yl)ethoxy)-6-(5-methyl-1-(1-(1-propionylazetidine-3-carbonyl)piperidin-4-yl)-1H-1,2,3-triazol-4-yl)pyrazolo[1,5-a]pyridine-3-carbonitrile], the Kd in assay [5] fell in the range of 100 to 250 nM; in assay [7], 0.1 to 100 nM; in assay [8] it was 0.1 to 100 nM; in assay [9], 0.1 to 100 nM; in assay [6] it was 0.1 to 100 nM.
With `C=CC(=O)N1CC(C(=O)N2CCC(n3nnc(-c4cc(O[C@@H](CO)c5ccccn5)c5c(C#N)cnn5c4)c3C)CC2)C1` [Example 17, (R)-6-(1-(1-(1-acryloylazetidine-3-carbonyl)piperidin-4-yl)-5-methyl-1H-1,2,3-triazol-4-yl)-4-(2-hydroxy-1-(pyridin-2-yl)ethoxy)pyrazolo[1,5-a]pyridine-3-carbonitrile], the dissociation constant (Kd) in [5] was at least 1000 nM; in [7], 250 to 1000 nM; in assay [8], 250 to 1000 nM; in assay [9] it was at least 1000 nM; in assay [6] it was 100 to 250 nM.
Take `C#CC(=O)N1CC(OC)(C(=O)N2CCC(n3nnc(-c4cc(OC(CO)c5ccccn5)c5c(C#N)cnn5c4)c3C)CC2)C1` (centres unmarked) [Example 24, 4-(2-hydroxy-1-(pyridin-2-yl)ethoxy)-6-(1-(1-(3-methoxy-1-propioloylazetidine-3-carbonyl)piperidin-4-yl)-5-methyl-1H-1,2,3-triazol-4-yl)pyrazolo[1,5-a]pyridine-3-carbonitrile]: the Kd in assay [5], in assay [7], in assay [8], in [9] and in [6] was 0.1 to 100 nM throughout.
In the case of `C=CC(=O)N1CCC2(CC1)CC(n1cc(-c3cc(O[C@@H](CO)c4ccc(F)cn4)c4c(C#N)cnn4c3)cn1)C2` [Example 25, (R)-6-(1-(7-acryloyl-7-azaspiro[3.5]nonan-2-yl)-1H-pyrazol-4-yl)-4-(1-(5-fluoropyridin-2-yl)-2-hydroxyethoxy)pyrazolo[1,5-a]pyridine-3-carbonitrile], the Kd in assay [5] fell in the range of 100 to 250 nM; in assay [7], 250 to 1000 nM; in [8], 100 to 250 nM; in [9], 250 to 1000 nM; in assay [6] it was 100 to 250 nM.
As to `CCC(=O)N1CCC2(CC1)CC(n1cc(-c3cc(O[C@@H](CO)c4ccc(F)cn4)c4c(C#N)cnn4c3)cn1)C2` [Example 26, (R)-4-(1-(5-fluoropyridin-2-yl)-2-hydroxyethoxy)-6-(1-(7-propionyl-7-azaspiro[3.5]nonan-2-yl)-1H-pyrazol-4-yl)pyrazolo[1,5-a]pyridine-3-carbonitrile], the Kd in [5] was 100 to 250 nM; in assay [7], 250 to 1000 nM; in assay [8], 100 to 250 nM; in assay [9], 250 to 1000 nM; in assay [6], 100 to 250 nM.
